Type in all cases: functional
One assay deals with MDA-MB-231. The assay is described as follows: Antiproliferative activity against human MDA-MB-231 cells assessed as inhibition of cell viability at 10 uM after 48 hrs by MTT assay relative to control. (Formazan colour is commonly taken as a measure of viable cells.)
Another assay has as its system HCT-116. In words: Antiproliferative activity against human HCT116 cells assessed as inhibition of cell viability at 10 uM after 48 hrs by MTT assay relative to control.
The test system of a further assay is SW480. In words: Antiproliferative activity against human SW480 cells assessed as inhibition of cell viability at 10 uM after 48 hrs by MTT assay relative to control.
In a further assay the test system is L3.6pl. The assay is described as follows: Antiproliferative activity against human L3.6 cells assessed as inhibition of cell viability at 10 uM after 48 hrs by MTT assay relative to control.

Regarding `COc1cc(OC)cc(C(=O)NS(=O)(=O)c2cc(C(=O)Nc3cc(OC)c(OC)c(OC)c3)ccc2Cl)c1`, the inhibition at 10 µM with MDA-MB-231 is 4.11%; in the assay with HCT-116 it was -2.37%; in the assay on SW480, 16.1%; in the assay on L3.6pl, -13.1%.
For `NS(=O)(=O)c1ccc(O)c(C(=O)Nc2ccc([N+](=O)[O-])cc2Cl)c1` the same measures were 48.2%, 64%, -8.3% and 44.7%.
Taken in the same sequence, the figures for `NS(=O)(=O)c1cccc(C(=O)Nc2ccc([N+](=O)[O-])cc2Cl)c1` were 43.2%, 15.1%, 44.1% and 21.3%.
As for `COc1cccc(C(=O)NS(=O)(=O)c2cc(C(=O)Nc3cc(OC)c(OC)c(OC)c3)ccc2Cl)c1`, the inhibition at 10 µM was 23.5% in the assay with MDA-MB-231, 21.3% with HCT-116, 22% with SW480 and -0.51% in the assay on L3.6pl.
For `C=CC(=O)NS(=O)(=O)c1cc(C(=O)Nc2cc(OC)c(OC)c(OC)c2)ccc1Cl`, the inhibition at 10 µM was 2.82% in the assay on MDA-MB-231, 24.2% with HCT-116, 28.9% in the assay with SW480 and -12.9% with L3.6pl.
Taken in the same sequence, the figures for `COc1ccc(CNC(=O)c2ccc(Cl)c(S(N)(=O)=O)c2)cc1` were 54%, 43.1%, 16.2% and 29%.
As for `C/C=C/C(=O)NS(=O)(=O)c1cc(C(=O)Nc2cc(OC)c(OC)c(OC)c2)ccc1Cl`, the inhibition at 10 µM stood at 18.4% in the assay on MDA-MB-231, 29.3% in the assay on HCT-116, 24.6% with SW480 and 11.7% with L3.6pl.
Taken in the same sequence, the figures for `COc1cc(NC(=O)c2ccc(Cl)c(S(=O)(=O)NC(=O)c3c(OC)cccc3OC)c2)cc(OC)c1OC` were 18.1%, 10.2%, 30.6% and 4.06%.
With `COc1ccccc1NC(=O)c1cccc(S(N)(=O)=O)c1`, the inhibition at 10 µM in the assay with MDA-MB-231 was found to be 27.1%; in the assay with HCT-116 it was 40.3%; in the assay on SW480, 18.2%; in the assay on L3.6pl, 9.7%.
Taken in the same sequence, the figures for `NS(=O)(=O)c1cc(C(=O)Nc2ccc(F)c(Cl)c2)ccc1Cl` were 41.5%, 47.5%, 49.1% and 30.2%.
For `COc1cc(NC(=O)c2ccc(Cl)c(S(=O)(=O)NC(=O)c3cccc([N+](=O)[O-])c3)c2)cc(OC)c1OC` the same measures were 14.3%, 3.74%, 12.1% and -6.13%.
Taken in the same sequence, the figures for `COc1ccc(NC(=O)c2ccc(Cl)c(S(N)(=O)=O)c2)cc1` were 30.9%, 20.2%, 31.9% and 22.8%.
As for `COc1cc(NC(=O)c2ccc(Cl)c(S(=O)(=O)NC(C)=O)c2)cc(OC)c1OC`, the inhibition at 10 µM in the assay with MDA-MB-231 was 19.4%; with HCT-116 it was 27.2%; in the assay with SW480 it was 19.5%; in the assay with L3.6pl it was -15.2%.
Regarding `NS(=O)(=O)c1cc(C(=O)Nc2cccc(C(F)(F)F)c2)ccc1Cl`, the inhibition at 10 µM in the assay with MDA-MB-231 was found to be 29%; in the assay with HCT-116 it was 41.4%; with SW480 it was 42.9%; in the assay on L3.6pl, 22.3%.
For `COc1cc(NC(=O)c2ccc(Cl)c(S(N)(=O)=O)c2)cc(OC)c1` the same measures were 31.8%, 42.5%, 27.2% and 26.3%.
For `NS(=O)(=O)c1cccc(C(=O)Nc2ccccc2C(F)(F)F)c1` the same measures were 42.8%, 40.3%, 24.8% and 21.9%.
Taken in the same sequence, the figures for `NS(=O)(=O)c1cc(C(=O)Nc2ccc(Cl)c(F)c2)ccc1Cl` were 43.7%, 44.1%, 48.1% and 26.4%.
Take `COc1ccccc1NC(=O)c1ccc(Cl)c(S(N)(=O)=O)c1`: the inhibition at 10 µM with MDA-MB-231 was found to be 19.8%; with HCT-116, 37.3%; in the assay with SW480, 49.3%; in the assay on L3.6pl it was 22.9%.
Taken in the same sequence, the figures for `NS(=O)(=O)c1cccc(C(=O)Nc2cccnc2)c1` were 42.9%, 8.11%, 28.3% and 32.7%.
Taken in the same sequence, the figures for `NC(N)=NS(=O)(=O)c1ccc(NC(=O)c2ccc(Cl)c(S(N)(=O)=O)c2)cc1` were 46.4%, 41.3%, 27.3% and 11.1%.
Taken in the same sequence, the figures for `COc1ccccc1C(=O)NS(=O)(=O)c1cc(C(=O)Nc2cc(OC)c(OC)c(OC)c2)ccc1Cl` were 13.1%, 16.2%, 33.9% and -18.3%.
`COc1cc(NC(=O)c2ccc(Cl)c(S(N)(=O)=O)c2)c(C(=O)O)cc1OC`: the inhibition at 10 µM with MDA-MB-231 was 66.7%; in the assay with HCT-116 it was 47.2%; with SW480, 30.2%; with L3.6pl, 11.8%.
Take `CN1CCN(c2ccc(NC(=O)c3ccc(Cl)c(S(N)(=O)=O)c3)cc2)CC1`: the inhibition at 10 µM with MDA-MB-231 is 37.3%; in the assay with HCT-116 it was 40.5%; with SW480, 38.3%; with L3.6pl, 14.6%.
Taken in the same sequence, the figures for `NS(=O)(=O)c1cccc(C(=O)Nc2ccc(C(F)(F)F)cc2)c1` were 26.4%, 19.1%, 38.1% and 18.1%.
Taken in the same sequence, the figures for `COc1cc(CNC(=O)c2ccc(Cl)c(S(N)(=O)=O)c2)cc(OC)c1OC` were 44.4%, 34.3%, 27.4% and 38.2%.
For `COc1cccc(NC(=O)c2ccc(Cl)c(S(N)(=O)=O)c2)c1` the same measures were 42.4%, 43%, 29.3% and 22.3%.
With `COc1ccc(OC)c(NC(=O)c2ccc(Cl)c(S(N)(=O)=O)c2)c1`, the inhibition at 10 µM in the assay on MDA-MB-231 was 26.7%; in the assay on HCT-116 it was 28.2%; in the assay with SW480, 23.2%; in the assay with L3.6pl, 24.2%.
In the case of `NS(=O)(=O)c1cc(C(=O)Nc2ccc(N3CCOCC3)cc2)ccc1Cl`, the inhibition at 10 µM with MDA-MB-231 worked out at 43.3%; with HCT-116, 39.3%; in the assay on SW480 it was 21.9%; in the assay on L3.6pl, 12.2%.
With `NS(=O)(=O)c1cc(C(=O)Nc2ccccc2C(F)(F)F)ccc1Cl`, the inhibition at 10 µM with MDA-MB-231 is 44.9%; in the assay on HCT-116, 45.4%; with SW480, 30.7%; with L3.6pl it was 21.2%.

The inhibition is the change of the read-out against control, counted positive when it falls.

The record behind these values is ChEMBL document CHEMBL4811240, “Discovery of N-substituted sulfamoylbenzamide derivatives as novel inhibitors of STAT3 signaling pathway based on Niclosamide” (Eur J Med Chem, 2021).
